The values that follow come from PubChem BioAssay (NCI).

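Interpolation was linear, between the two tested concentrations surrounding the appropriate level; five concentrations were tested over 48 hours in 96-well plates. Here, GI50 denotes the concentration required for 50% inhibition of growth. The concentration for full growth arrest is given as TGI.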

Test systems include IGROV1 ovarian; KM12 colon; M14 melanoma; MDA-MB-435; NCI-H23 lung; RXF 393 renal; SK-MEL-28 melanoma; SW-620 colon; U251 CNS; UACC-257 melanoma.
What all share (assay): DTP human tumour cell line panel, 48 h

In general, TGI refers to the concentration giving total growth inhibition. Low values mean greater sensitivity of the cells, high ones lower sensitivity of the cells. For the molecule `C=C1C(=O)OC2C1C(OC(=O)/C(C)=C/C)CC(O)(CCl)C1C(OC(C)=O)C=C(C)C21O` (stereo not given), the TGI is 30 µM in the test with IGROV1 ovarian; 39.5 µM in the test with KM12 colon; 25.7 µM in the test on M14 melanoma; over 51.2 µM in the test with MDA-MB-435; 34.1 µM in the test with NCI-H23 lung; 25 µM in the test with RXF 393 renal. Further, the TGI in the test on SK-MEL-28 melanoma came to 27.9 µM; with SW-620 colon it was 14 µM; with U251 CNS, 41.2 µM; in the test with UACC-257 melanoma, 34.1 µM.
One may read the GI50 as the concentration giving 50% growth inhibition. With `COc1cc2c3c(n(CCCO)c(=O)c2cc1OC)-c1cc2c(cc1C3=O)OCO2`, the GI50 in the test with IGROV1 ovarian was 17.4 µM; with KM12 colon, 27.7 µM; with M14 melanoma, 3.68 µM; in the test on MDA-MB-435, 31.4 µM; in the test on NCI-H23 lung it was 6.75 µM; with RXF 393 renal, 27.1 µM. Further, the GI50 in the test with SK-MEL-28 melanoma was over 31.2 µM; in the test on SW-620 colon, 4.75 µM; with U251 CNS, 2.63 µM; in the test with UACC-257 melanoma, 64.7 µM. For the same molecule, the TGI in the test on IGROV1 ovarian was over 100 µM; in the test on KM12 colon, over 100 µM; in the test on M14 melanoma, 32.8 µM; in the test on MDA-MB-435 it was over 100 µM; in the test on NCI-H23 lung, 28.3 µM; with RXF 393 renal, over 94.6 µM. In addition, the concentration for total growth inhibition (TGI) with SK-MEL-28 melanoma was over 100 µM; with SW-620 colon it was over 100 µM; in the test with U251 CNS it was 27.8 µM; in the test with UACC-257 melanoma it was over 100 µM.
With `C[C@@H](Oc1cc(-c2cnn(C3CCNCC3)c2)cnc1N)c1c(Cl)ccc(F)c1Cl`, the GI50 in the test on IGROV1 ovarian is 2.17 µM; in the test with KM12 colon it was 0.053 µM; in the test with M14 melanoma, 1.08 µM; in the test on MDA-MB-435, 0.715 µM; with NCI-H23 lung, 0.93 µM; with RXF 393 renal it was 1.36 µM. In addition, the GI50 in the test with SK-MEL-28 melanoma was 1.61 µM; with SW-620 colon it was 0.435 µM; in the test on U251 CNS, 1.98 µM; in the test on UACC-257 melanoma, 1.52 µM. The TGI in the test on IGROV1 ovarian was over 10 µM; in the test on KM12 colon it was over 10 µM; in the test on M14 melanoma it was 2.65 µM; with MDA-MB-435, over 10 µM; with NCI-H23 lung, over 10 µM; with RXF 393 renal it was 3.11 µM. In addition, the concentration for total growth inhibition (TGI) was 3.54 µM with SK-MEL-28 melanoma, over 10 µM in the test on SW-620 colon, 8.74 µM in the test on U251 CNS and 3.15 µM in the test on UACC-257 melanoma.
As to `O=C(O)C(Cc1ccccc1-c1ccccc1)C(=O)O`, the TGI with IGROV1 ovarian, with KM12 colon, in the test with M14 melanoma, with MDA-MB-435, in the test on NCI-H23 lung and in the test on RXF 393 renal was over 100 µM throughout. Moreover, the concentration for total growth inhibition (TGI) with SK-MEL-28 melanoma, in the test on SW-620 colon, in the test with U251 CNS and in the test on UACC-257 melanoma was over 100 µM each time.
In the case of `CCN(CC)c1ccc2[nH]c3c(C(N)=O)cc(=O)c(=O)c=3oc2c1`, the concentration for 50% growth inhibition (GI50) in the test with IGROV1 ovarian was 0.31 µM; with KM12 colon, 2.94 µM; in the test with M14 melanoma it was 1.61 µM; in the test on MDA-MB-435, 0.377 µM; in the test on NCI-H23 lung it was 1.4 µM; in the test with RXF 393 renal, 1.37 µM. Moreover, the GI50 is 3.76 µM with SK-MEL-28 melanoma, 2.36 µM in the test on SW-620 colon, 0.912 µM in the test on U251 CNS and 0.683 µM with UACC-257 melanoma. Besides, the TGI turned out to be 1.24 µM in the test on IGROV1 ovarian; 11.3 µM with KM12 colon; 4.17 µM with M14 melanoma; 9.78 µM in the test with MDA-MB-435; 5.17 µM with NCI-H23 lung; 6.39 µM in the test on RXF 393 renal. Also, the concentration for total growth inhibition (TGI) is 17.2 µM in the test on SK-MEL-28 melanoma, over 100 µM with SW-620 colon, 5.75 µM with U251 CNS and 3.25 µM in the test on UACC-257 melanoma.
As to `COc1cccc(-c2nc(-c3ccc(NS(=O)(=O)c4ccccc4)cc3)[nH]c2-c2ccnc(Br)c2)c1`, the GI50 is 3.84 µM in the test on IGROV1 ovarian; 2.65 µM with KM12 colon; 2.03 µM with M14 melanoma; 2.51 µM in the test with MDA-MB-435; 3.06 µM in the test with NCI-H23 lung; 2.18 µM with RXF 393 renal. Moreover, the GI50 with SK-MEL-28 melanoma was 2.91 µM; with SW-620 colon, 2.83 µM; in the test on U251 CNS, 2.73 µM; in the test on UACC-257 melanoma, 3.11 µM. Further, the total growth inhibition concentration (TGI) with IGROV1 ovarian is over 100 µM; in the test on KM12 colon, 8.74 µM; with M14 melanoma, 6.09 µM; in the test on MDA-MB-435, 9.21 µM; with NCI-H23 lung, 17.2 µM; in the test on RXF 393 renal, 5.73 µM. Also, the TGI in the test on SK-MEL-28 melanoma is 31 µM; in the test with SW-620 colon it was over 100 µM; with U251 CNS, over 100 µM; in the test with UACC-257 melanoma it was 30.3 µM.
In the case of `Nc1nc(SCC(=O)O)[nH]c(=O)c1N`, the concentration for total growth inhibition (TGI) in the test on IGROV1 ovarian, in the test with KM12 colon, in the test on M14 melanoma, in the test on MDA-MB-435, with NCI-H23 lung and in the test with RXF 393 renal was over 100 µM throughout. The concentration for total growth inhibition (TGI) in the test on SK-MEL-28 melanoma, in the test with SW-620 colon, with U251 CNS and with UACC-257 melanoma was over 100 µM each time.
On to `Cc1ccc2c(/C=C/C(=O)c3cc(CN4CCOCC4)c(O)c4nc(C)ccc34)cc(CN3CCOCC3)c(O)c2n1`, for which the GI50 in the test on IGROV1 ovarian was 0.622 µM; in the test with KM12 colon it was 0.558 µM; with M14 melanoma, 0.564 µM; in the test on MDA-MB-435, 0.669 µM; in the test with NCI-H23 lung, 1.13 µM; with RXF 393 renal it was 0.851 µM. Also, the GI50 is 1.08 µM with SK-MEL-28 melanoma, 0.485 µM in the test with SW-620 colon, 0.412 µM in the test on U251 CNS and 2.62 µM in the test with UACC-257 melanoma. Also, the total growth inhibition concentration (TGI) in the test with IGROV1 ovarian came out at 3.6 µM; with KM12 colon, 2.24 µM; with M14 melanoma, 11.7 µM; in the test on MDA-MB-435 it was 2.3 µM; in the test on NCI-H23 lung, 4.5 µM; in the test on RXF 393 renal it was 2.27 µM. For the same molecule, the concentration for total growth inhibition (TGI) in the test with SK-MEL-28 melanoma was determined as 12 µM; in the test with SW-620 colon, 2.4 µM; in the test on U251 CNS, 2.58 µM; in the test on UACC-257 melanoma, 13.6 µM.
